Legend:
Type in all cases: cell-based
[1] = test system: human peripheral blood mononuclear cells (hPBMC); assay: human PBMC assay, Example 7 (oligo 20 μg/ml, cPLGA 100 μg/ml); conditions: for IFN-α Mean / IFN-γ Mean: mean of donors 28115-28118
Method: (§1) Hexameric oligonucleotides were tested for immunomodulatory activity alone and complexed with lactic acid/glycolic acid copolymer microcarrier beads using a human peripheral blood mononuclear cells (hPBMC) assay. Peripheral blood was collected from healthy volunteers by venipuncture using heparinized syringes. Blood was layered onto a FICOLL® (Amersham Pharmacia Biotech) cushion and centrifuged. hPBMCs, located at the FICOLL® interface, were collected, then washed twice with cold phosphate buffered saline (PBS). The cells were resuspended and cultured in 48 well plates at 2×10^6 cells/mL at 37° C. in RPMI 1640 with 10% heat-inactivated human AB serum plus 50 units/mL penicillin, 50 μg/mL streptomycin, 300 μg/mL glutamine, 1 mM sodium pyruvate, and 1×MEM non-essential amino acids (NEAA).
(§2) Oligonucleotides were tested as single agents, or in combination with PLGA microspheres (unmodified or cationic). All oligonucleotides contained 100% phosphorothioate linkages and were tested at 20 μg/ml. The PLGA microcarriers were used at 250 μg/ml. When oligos were tested with PLGA microcarriers, the oligo and the microcarriers were added at the same time to the culture. The cells were cultured in the in the presence of test samples for 24 hours, then cell-free medium was collected from each well and assayed for IFN-γ and IFN-α concentration. Two different oligonucleotides were used as controls: a first oligonucleotide known to have immunostimulatory activity (a 22mer oligonucleotide containing an ISS (“ISS+,” 5′-[…]-3′(SEQ ID NO:2)) and a second oligonucleotide of similar sequence but lacking immunostimulatory activity (“ISS−,” 5′-[…]-3′ (SEQ ID NO:1)). SAC (PANSORBIN® CalBiochem, 1/5000 dilution) and a untreated culture were used as additional positive and negative controls, respectively. SAC contains Staph. aureus (Cowan I) cell material. All samples were assayed in duplicate.
(§3) IFN-γ and IFN-α were assayed using CYTOSCREEN™ ELISA kits from BioSource International, Inc., according to the manufacturer's instructions.
(§4) The immunomodulatory activity of the oligonucleotides used in Examples 3 and 4 was confirmed with the human PBMC assay using PBMCs from an additional four donors (donors 28051-28054). Oligonucleotides were tested alone or in combination with cationic PLGA as described in Example 3, except that 96 well plates were used instead of 48 well plates and the oligonucleotides were premixed with the cationic microspheres at room temperature for 15 minutes before they were added to the culture, rather than being added simultaneously to the culture.
Additional oligonucleotides, some incorporating modified bases, were tested for immunomodulatory activity in the human PBMC assay. Oligonucleotides were tested alone or in combination with cPLGA as described in Example 5. The oligonucleotides were premixed with the cationic PLGA microspheres for 15 minutes at room temperature at concentrations of 20 μg/ml and 100 μg/ml, respectively.

[2] = test system: human peripheral blood mononuclear cells (hPBMC); assay: human PBMC assay, Example 4 (oligos and PLGA premixed 15 minutes); conditions: for IFN-α Mean / IFN-γ Mean: mean of donors 28044, 28045
Method: as §1, §2, §3
Additional hexameric and pentameric oligonucleotides were tested for immunomodulatory activity in the PBMC assay. Oligonucleotides 6-6 (5′-TCGAGA-3′), 6-8 (5′-GTCGAC-3′), 6-9 (5′-GTCGTT-3′), 6-2 (5′-TCGTTT-3′), 6-3 (5′-TTCGTT-3′), 6-4 (5′-TTTCGT-3′), 5-1 (5′-TCGTC-3′), and 5-2 (5′-TCGTT-3′) were tested alone or in combination with cationic PLGA as described in Example 3 except that the oligos and PLGA were premixed for 15 minutes room temperature before addition to the cultures. The test articles were assayed using PBMC isolated from donors 28044 and 28045.

[3] = test system: human peripheral blood mononuclear cells (hPBMC); assay: human PBMC assay, Example 6
Method: as §1, §2, §3, §4
Additional oligonucleotides were tested for immunomodulatory activity in the human PBMC assay. Oligonucleotides were tested alone or in combination with cPLGA as described in Example 5.
Additional oligonucleotides were tested using hPBMCs from volunteers 154-157 using the same assay. Results, which are shown in Table 7, confirm the activity of oligonucleotides fitting the formula 5′-X1TCGX2-3′, where the oligonucleotide is a 3-6mer, X1 is zero or one nucleotide and X2 is zero to three nucleotides.

[4] = test system: human peripheral blood mononuclear cells (hPBMC); assay: human PBMC assay, Example 5 (96 well plates, premixed); conditions: for IFN-α Mean / IFN-γ Mean: mean of donors 28051-28054
Method: as §1, §2, §3, §4

[5] = test system: human peripheral blood mononuclear cells (hPBMC); assay: human PBMC assay, Example 3 (oligo and PLGA added at the same time, 48 well plates); conditions: for IFN-α / IFN-γ: oligo 20 μg/ml, PLGA 250 μg/ml, 24 hours
Method: as §1, §2, §3

[6] = delivered as IMO/MC complexes (cPLGA)

Which results are given for 5′-TCGTTT-3′ [Oligonucleotide 6-2]?
IFN-α ([1]; donor 28115): 0 pg/mL; IFN-γ ([1]; donor 28115): 3 pg/mL; IFN-α ([1]; donor 28116): 0 pg/mL; IFN-γ ([1]; donor 28116): 0 pg/mL; IFN-α ([1]; donor 28117): 0 pg/mL; IFN-γ ([1]; donor 28117): 5 pg/mL; IFN-α ([1]; donor 28118): 0 pg/mL; IFN-γ ([1]; donor 28118): 0 pg/mL; IFN-α Mean [1]: 0 pg/mL; IFN-γ Mean [1]: 2 pg/mL; IFN-α ([2]; donor 28044): 0 pg/mL; IFN-γ ([2]; donor 28044): 30 pg/mL; IFN-α ([2]; donor 28045): 0 pg/mL; IFN-γ ([2]; donor 28045): 0 pg/mL; IFN-α Mean [2]: 0 pg/mL; IFN-γ Mean [2]: 15 pg/mL; immunomodulatory activity ([3]; delivered as oligonucleotide/MC complex (cPLGA)): highly active; IFN-α ([3]; donor 28075): 36 pg/mL; IFN-γ ([3]; donor 28075): 8 pg/mL; IFN-α ([3]; donor 28076): 6 pg/mL; IFN-γ ([3]; donor 28076): 18 pg/mL; IFN-α ([3]; donor 28077): 66 pg/mL; IFN-γ ([3]; donor 28077): 5 pg/mL; IFN-α ([3]; donor 28078): 101 pg/mL; IFN-γ ([3]; donor 28078): 14 pg/mL; IFN-α Mean ([3]; mean of donors 28075-28078): 53 pg/mL; IFN-γ Mean ([3]; mean of donors 28075-28078): 11 pg/mL; immunomodulatory activity ([4]; delivered alone): inactive; immunomodulatory activity [4, 6]: highly active; IFN-α ([4]; donor 28051): 0 pg/mL; IFN-γ ([4]; donor 28051): 1 pg/mL; IFN-α ([4]; donor 28052): 2 pg/mL; IFN-γ ([4]; donor 28052): 0 pg/mL; IFN-α ([4]; donor 28053): 10 pg/mL; IFN-γ ([4]; donor 28053): 3 pg/mL; IFN-α ([4]; donor 28054): 0 pg/mL; IFN-γ ([4]; donor 28054): 1 pg/mL; IFN-α Mean [4]: 3 pg/mL; IFN-γ Mean [4]: 1 pg/mL

Which results are given for 5′-TCGTT-3′ [Oligonucleotide 5-2]?
immunomodulatory activity ([1]; combined with cPLGA): active in two of four donors; IFN-α ([1]; donor 28115): 0 pg/mL; IFN-γ ([1]; donor 28115): 8 pg/mL; IFN-α ([1]; donor 28116): 0 pg/mL; IFN-γ ([1]; donor 28116): 4 pg/mL; IFN-α ([1]; donor 28117): 0 pg/mL; IFN-γ ([1]; donor 28117): 8 pg/mL; IFN-α ([1]; donor 28118): 0 pg/mL; IFN-γ ([1]; donor 28118): 0 pg/mL; IFN-α Mean [1]: 0 pg/mL; IFN-γ Mean [1]: 5 pg/mL; IFN-α ([2]; donor 28044): 0 pg/mL; IFN-γ ([2]; donor 28044): 4 pg/mL; IFN-α ([2]; donor 28045): 0 pg/mL; IFN-γ ([2]; donor 28045): 0 pg/mL; IFN-α Mean [2]: 0 pg/mL; IFN-γ Mean [2]: 2 pg/mL; immunomodulatory activity ([4]; delivered alone): inactive; immunomodulatory activity [4, 6]: highly active; IFN-α ([4]; donor 28051): 1 pg/mL; IFN-γ ([4]; donor 28051): 1 pg/mL; IFN-α ([4]; donor 28052): 5 pg/mL; IFN-γ ([4]; donor 28052): 0 pg/mL; IFN-α ([4]; donor 28053): 0 pg/mL; IFN-γ ([4]; donor 28053): 0 pg/mL; IFN-α ([4]; donor 28054): 2 pg/mL; IFN-γ ([4]; donor 28054): 1 pg/mL; IFN-α Mean [4]: 2 pg/mL; IFN-γ Mean [4]: 0 pg/mL

5′-TCGTCG-3′ [Oligonucleotide 6-1] was tested. Which IFN-α ([5]; donor 28033) did it give?
Its IFN-α is 0 pg/mL.

What about the IFN-γ ([5]; donor 28033) of the same substance?
Its IFN-γ is 0 pg/mL.

And the IFN-α ([5]; donor 28034)?
The IFN-α was 40 pg/mL.

What about the IFN-γ ([5]; donor 28034) of the same substance?
The IFN-γ was 4 pg/mL.

What about the “immunomodulatory activity” value ([5]; in combination with cationic PLGA) of the same substance?
Its value is “active”.

And the “IFN-α Mean” value ([5]; mean of donors 28033, 28034)?
The value was 20 pg/mL.

And the “IFN-γ Mean” value ([5]; mean of donors 28033, 28034)?
Its value is 2 pg/mL.

What about the “IFN-α Mean” value ([3]; mean of volunteers 154-157) of the same substance?
Its value is 0 pg/mL.

What about the “IFN-γ Mean” value ([3]; mean of volunteers 154-157) of the same substance?
Its value is 3 pg/mL.

What about the IFN-α ([3]; volunteer 154) of the same substance?
The IFN-α was 0 pg/mL.

What about the IFN-γ ([3]; volunteer 154) of the same substance?
The IFN-γ was 0 pg/mL.

And the IFN-α ([3]; volunteer 155)?
The IFN-α was 0 pg/mL.

And the IFN-γ ([3]; volunteer 155)?
Its IFN-γ is 0 pg/mL.

And the IFN-α ([3]; volunteer 156)?
Its IFN-α is 0 pg/mL.

What about the IFN-γ ([3]; volunteer 156) of the same substance?
Its IFN-γ is 11 pg/mL.

And the IFN-α ([3]; volunteer 157)?
Its IFN-α is 0 pg/mL.

What about the IFN-γ ([3]; volunteer 157) of the same substance?
Its IFN-γ is 0 pg/mL.

And the “immunomodulatory activity” value ([4]; delivered alone)?
The value was “inactive”.

What about the “immunomodulatory activity” value [4, 6] of the same substance?
Its value is “highly active”.

And the IFN-α ([4]; donor 28051)?
The IFN-α was 0 pg/mL.

And the IFN-γ ([4]; donor 28051)?
Its IFN-γ is 2 pg/mL.

What about the IFN-α ([4]; donor 28052) of the same substance?
Its IFN-α is 2 pg/mL.

And the IFN-γ ([4]; donor 28052)?
The IFN-γ was 3 pg/mL.

And the IFN-α ([4]; donor 28053)?
Its IFN-α is 1 pg/mL.

What about the IFN-γ ([4]; donor 28053) of the same substance?
Its IFN-γ is 1 pg/mL.

And the IFN-α ([4]; donor 28054)?
Its IFN-α is 4 pg/mL.

What about the IFN-γ ([4]; donor 28054) of the same substance?
The IFN-γ was 2 pg/mL.

What about the “IFN-α Mean” value [4] of the same substance?
The value was 2 pg/mL.

What about the “IFN-γ Mean” value [4] of the same substance?
The value was 2 pg/mL.
